These results are taken from US20260070945A1, “MACROCYCLIC IMMUNOMODULATORS” (Bristol-Myers Squibb Company, priority 2022, published 2026).

Molecules are shown by their SMILES. Where a SMILES comes first, the peptide text is derived from it. Bridges are numbered along the chain shown (N, C = ends). [ ]: non-standard residue; d: D form. The star is where a group is joined. Phe(4-COOH) = N[C@@H](Cc1ccc(C(=O)O)cc1)C(=O)O; Bip = N[C@@H](Cc1ccc(-c2ccccc2)cc1)C(=O)O; Phe(3-Me) = Cc1cccc(C[C@H](N)C(=O)O)c1; NH(CH2)12COOH = O=C(O)CCCCCCCCCCCCN*; Val(3-OH) = CC(C)(O)[C@H](N)C(=O)O; Cha = N[C@@H](CC1CCCCC1)C(=O)O; Cit = NC(=O)NCCC[C@H](N)C(=O)O; Carboxymethyl = O=C(O)C*; NMeA = CN[C@@H](C)C(=O)O; Aun = NCCCCCCCCCCC(=O)O; Dab = NCC[C@H](N)C(=O)O; AEEA = NCCOCCOCC(=O)O

T1 sequence (Q15116 25-288): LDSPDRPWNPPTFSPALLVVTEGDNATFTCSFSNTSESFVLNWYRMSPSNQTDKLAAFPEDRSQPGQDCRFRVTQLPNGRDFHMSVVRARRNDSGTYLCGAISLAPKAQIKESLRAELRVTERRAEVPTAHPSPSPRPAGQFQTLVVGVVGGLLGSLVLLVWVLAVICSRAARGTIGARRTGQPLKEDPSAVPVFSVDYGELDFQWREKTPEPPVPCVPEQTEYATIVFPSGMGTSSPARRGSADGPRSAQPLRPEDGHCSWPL

The experiment has as its target T1, PD-1/PD-L1 interaction (PE-labeled human PD-L1-Ig binding to Jurkat cell line over-expressing human PD-1) (Homo sapiens, UniProt Q15116).
T1 construct: expressed in transfected cells; host or cells: Jurkat
Briefly: Jurkat-PD-1 Cell Binding High-Content Screening Assay (CBA). The conditions noted are these: Jurkat-hPD-1 cells, PE-labeled PD-L1-Ig 20 nM final; read-out: Jurkat HPD1 PDL1 IC50. In outline: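 Jurkat cells overexpressing human PD-1 (8×10^3/well, DMEM + 10% FCS) preincubated with compound 2 h at 37 °C, then PE-labelled human PD-L1-Ig (20 nM final) for 1 h. Cells fixed in paraformaldehyde with Hoechst 33342; bound PD-L1 quantified by high-content imaging.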
For `Cc1cccc(C[C@@H]2NC(=O)[C@H](CC(=O)O)NC(=O)[C@H](Cc3ccc(C(=O)O)cc3)NC(=O)[C@H](Cc3ccc(OCC(=O)O)cc3)NC(=O)CSC[C@@H](C(=O)N[C@@H](CCN)C(=O)NCCOCCOCC(=O)NCCOCCOCC(=O)NCCCCCCCCCCCCC(=O)O)NC(=O)[C@H](CO)NC(=O)[C@H](C(C)(C)O)NC(=O)[C@H](CC3CCCCC3)NC(=O)[C@H](CCN)NC(=O)[C@@H](CC(C)C)NC(=O)[C@H](C)N(C)C(=O)[C@H](CCC(N)=O)NC(=O)[C@H](Cc3ccc(-c4ccccc4)cc3)NC(=O)[C@H](Cc3ccc(C(=O)O)cc3)NC2=O)c1` [Example 1105] ({CH2CO}-Y(Carboxymethyl)[Phe(4-COOH)]D[Phe(3-Me)][Phe(4-COOH)][Bip]Q[NMeA][dL][Dab][Cha][Val(3-OH)]SC[Dab][AEEA][AEEA]-{NH(CH2)12COOH}; thioether N-14), the IC50 worked out at 7.2 nM. The same measure for `CC(C)C[C@H]1NC(=O)[C@H](C)N(C)C(=O)[C@H](Cc2ccc(OCC(=O)O)cc2)NC(=O)[C@H](Cc2ccc(-c3ccccc3)cc2)NC(=O)[C@H](Cc2ccc(OCC(=O)O)cc2)NC(=O)[C@H](Cc2c[nH]c3ccccc23)NC(=O)[C@H](CC(=O)O)NC(=O)[C@H](Cc2ccncc2)NC(=O)[C@H](Cc2ccc(OCC(=O)O)cc2)NC(=O)CSC[C@@H](C(=O)N[C@@H](CCN)C(=O)NCCCCCCCCCCC(=O)O)NC(=O)[C@H](CCCn2cc(CN(C)C(=O)c3ccc(F)cc3)nn2)NC(=O)[C@H](C(C)C)NC(=O)[C@H](CC2CCCCC2)NC(=O)[C@H](CCN)NC1=O` [Example 1110]: 23.1 nM; for `CC(C)C[C@@H]1NC(=O)[C@H](Cc2c[nH]c3ccccc23)NC(=O)[C@H](CC(=O)O)NC(=O)[C@H](Cc2ccc(C(=O)O)cc2)NC(=O)[C@H](Cc2ccc(OCC(=O)O)cc2)NC(=O)CSC[C@@H](C(=O)NCCOCCOCC(=O)NCCCCCCCCCCC(=O)O)NC(=O)[C@H](CCCNC(N)=O)NC(=O)[C@H](C(C)(C)O)NC(=O)[C@H](CC2CCCCC2)NC(=O)[C@H](CCN)NC(=O)[C@@H](CC(C)C)NC(=O)[C@H](C)N(C)C(=O)[C@H](C(C)C)NC(=O)[C@H](Cc2ccc(-c3ccccc3)cc2)NC1=O` [Example 1111] ({CH2CO}-Y(Carboxymethyl)[Phe(4-COOH)]DWL[Bip]V[NMeA][dL][Dab][Cha][Val(3-OH)][Cit]C[AEEA][Aun]-OH; thioether N-14): 9.1 nM; for `CC(C)C[C@@H]1NC(=O)[C@H](Cc2c[nH]c3ccccc23)NC(=O)[C@H](CC(=O)O)NC(=O)[C@H](Cc2ccc(C(=O)O)cc2)NC(=O)[C@H](Cc2ccc(OCC(=O)O)cc2)NC(=O)CSC[C@@H](C(=O)NCCOCCOCC(=O)NCCCCCCCCCCC(=O)O)NC(=O)[C@H](CCC(=O)O)NC(=O)[C@H](C(C)(C)O)NC(=O)[C@H](CC2CCCCC2)NC(=O)[C@H](CCN)NC(=O)[C@@H](CC(C)C)NC(=O)[C@H](C)N(C)C(=O)[C@H](C(C)C)NC(=O)[C@H](Cc2ccc(-c3ccccc3)cc2)NC1=O` [Example 1112] ({CH2CO}-Y(Carboxymethyl)[Phe(4-COOH)]DWL[Bip]V[NMeA][dL][Dab][Cha][Val(3-OH)]EC[AEEA][Aun]-OH; thioether N-14): 47.1 nM. Take `CC(C)C[C@@H]1NC(=O)[C@H](Cc2c[nH]c3ccccc23)NC(=O)[C@H](CC(=O)O)NC(=O)[C@H](Cc2ccc(C(=O)O)cc2)NC(=O)[C@H](Cc2ccc(OCC(=O)O)cc2)NC(=O)CSC[C@@H](C(=O)NCCOCCOCC(=O)NCCCCCCCCCCC(=O)O)NC(=O)[C@H](CCC(=O)O)NC(=O)[C@H](C(C)(C)O)NC(=O)[C@H](CC2CCCCC2)NC(=O)[C@H](CCN)NC(=O)[C@@H](CC(C)C)NC(=O)[C@H](C)N(C)C(=O)[C@H](C(C)C)NC(=O)[C@H](Cc2ccc(-c3ccccc3)cc2)NC1=O` [Example 1114] ({CH2CO}-Y(Carboxymethyl)[Phe(4-COOH)]DWL[Bip]V[NMeA][dL][Dab][Cha][Val(3-OH)]EC[AEEA][Aun]-OH; thioether N-14): the IC50 stood at 43.7 nM. As for `CC(C)C[C@@H]1NC(=O)[C@H](Cc2c[nH]c3ccccc23)NC(=O)[C@H](CC(=O)O)NC(=O)[C@H](Cc2ccc(C(=O)O)cc2)NC(=O)[C@H](Cc2ccc(OCC(=O)O)cc2)NC(=O)CSC[C@@H](C(=O)NCCOCCOCC(=O)NCCCCCCCCCCC(=O)O)NC(=O)[C@H](CCN)NC(=O)[C@H](C(C)(C)O)NC(=O)[C@H](CC2CCCCC2)NC(=O)[C@H](CCN)NC(=O)[C@@H](CC(C)C)NC(=O)[C@H](C)N(C)C(=O)[C@H](C(C)C)NC(=O)[C@H](Cc2ccc(-c3ccccc3)cc2)NC1=O` [Example 1120] ({CH2CO}-Y(Carboxymethyl)[Phe(4-COOH)]DWL[Bip]V[NMeA][dL][Dab][Cha][Val(3-OH)][Dab]C[AEEA][Aun]-OH; thioether N-14), the IC50 is 13.6 nM. `CC(C)C[C@@H]1NC(=O)[C@H](Cc2c[nH]c3ccccc23)NC(=O)[C@H](CC(=O)O)NC(=O)[C@H](Cc2ccc(C(=O)O)cc2)NC(=O)[C@H](Cc2ccc(OCC(=O)O)cc2)NC(=O)CSC[C@@H](C(=O)NCCOCCOCC(=O)NCCCCCCCCCCC(=O)O)NC(=O)[C@H](Cc2cnc[nH]2)NC(=O)[C@H](C(C)(C)O)NC(=O)[C@H](CC2CCCCC2)NC(=O)[C@H](CCN)NC(=O)[C@@H](CC(C)C)NC(=O)[C@H](C)N(C)C(=O)[C@H](C(C)C)NC(=O)[C@H](Cc2ccc(-c3ccccc3)cc2)NC1=O` [Example 1121] ({CH2CO}-Y(Carboxymethyl)[Phe(4-COOH)]DWL[Bip]V[NMeA][dL][Dab][Cha][Val(3-OH)]HC[AEEA][Aun]-OH; thioether N-14): the IC50 worked out at 8.1 nM. As to `CC(C)C[C@@H]1NC(=O)[C@H](Cc2c[nH]c3ccccc23)NC(=O)[C@H](CC(=O)O)NC(=O)[C@H](Cc2ccc(C(=O)O)cc2)NC(=O)[C@H](Cc2ccc(OCC(=O)O)cc2)NC(=O)CSC[C@@H](C(=O)N[C@@H](CCN)C(=O)NCCOCCOCC(=O)NCCCCCCCCCCC(=O)O)NC(=O)[C@H](CCCNC(N)=O)NC(=O)[C@H](C(C)(C)O)NC(=O)[C@H](CC2CCCCC2)NC(=O)[C@H](CCN)NC(=O)[C@@H](CC(C)C)NC(=O)[C@H](C)N(C)C(=O)[C@H](C(C)C)NC(=O)[C@H](Cc2ccc(-c3ccccc3)cc2)NC1=O` [Example 1122] ({CH2CO}-Y(Carboxymethyl)[Phe(4-COOH)]DWL[Bip]V[NMeA][dL][Dab][Cha][Val(3-OH)][Cit]C[Dab][AEEA][Aun]-OH; thioether N-14), the IC50 was determined as 3.8 nM. As for `CC(C)C[C@@H]1NC(=O)[C@H](Cc2c[nH]c3ccccc23)NC(=O)[C@H](CC(=O)O)NC(=O)[C@H](Cc2ccc(C(=O)O)cc2)NC(=O)[C@H](Cc2ccc(OCC(=O)O)cc2)NC(=O)CSC[C@@H](C(=O)N[C@@H](CCN)C(=O)NCCOCCOCC(=O)NCCCCCCCCCCC(=O)O)NC(=O)[C@H](CCC(=O)O)NC(=O)[C@H](C(C)(C)O)NC(=O)[C@H](CC2CCCCC2)NC(=O)[C@H](CCN)NC(=O)[C@@H](CC(C)C)NC(=O)[C@H](C)N(C)C(=O)[C@H](C(C)C)NC(=O)[C@H](Cc2ccc(-c3ccccc3)cc2)NC1=O` [Example 1123] ({CH2CO}-Y(Carboxymethyl)[Phe(4-COOH)]DWL[Bip]V[NMeA][dL][Dab][Cha][Val(3-OH)]EC[Dab][AEEA][Aun]-OH; thioether N-14), the IC50 turned out to be 9.3 nM.

Usually IC50 stands for the concentration at which inhibition is half-maximal.
